Assay results from US20100298136A1, “ACTIVE INGREDIENT COMBINATIONS WITH INSECTICIDAL PROPERTIES” (BAYER CROPSCIENCE AG, priority 2006, published 2010).

Tests used:
[1] = system: larvae of the mustard beetle (Phaedon cochleariae); assay: Phaedon cochleariae larvae test (cabbage leaf dip); format: in vivo; settings: single active compound
Procedure: Phaedon cochleariae Larvae Test
(§1) Solvent: 7 parts by weight of dimethylformamide Emulgator: 2 parts by weight of alkylaryl polyglycol ether
(§2) To produce a suitable preparation of active compound, 1 part by weight of active compound is mixed with the stated amounts of solvent and emulsifier, and the concentrate is diluted with water to the desired concentration.
Cabbage leaves (Brassica oleracea) are treated by being dipped into the preparation of active compound of the desired concentration and populated with larvae of the mustard beetle (Phaedon cochleariae) while the leaves are still moist.
After the desired period of time, the kill in % is determined. 100% means that all beetle larvae have been killed; 0% means that none of the beetle larvae have been killed. The kill rates determined are entered into the Colby formula (see sheet 1).

[2] = system: green peach aphid (Myzus persicae); assay: Myzus persicae test (cabbage leaf dip); format: in vivo; settings: single active compound, 0.16 ppm
Procedure: as §1, §2
Cabbage leaves (Brassica oleracea) which are heavily infested by the green peach aphid (Myzus persicae) are treated by being dipped into the preparation of active compound of the desired concentration.
After the desired period of time, the kill in % is determined. 100% means that all aphids have been killed; 0% means that none of the aphids have been killed. The kill rates determined are entered into the Colby formula (see sheet 1).

SMILES: CN(Cc1ccc(Cl)nc1)C1=CC(=O)OC1 [compound (Ia)]
- Kill in % after 4d ([1]; 4 ppm): 5%
- Kill in % after 4d ([1]; 20 ppm): 16%
- Kill in % after 6d [2]: 10%

SMILES: O=[N+]([O-])/N=C1\NCCN1Cc1ccc(Cl)nc1 [imidacloprid, reference compound]
- Kill in % after 4d ([1]; 20 ppm): 53%
- Kill in % after 6d [2]: 20%
